# Experimental data as given in patent US11912970B2, “Universal microfluidic culture system to analyze and control cell dynamics” (The University of Chicago, priority 2017, dated 2024).
# Columns and labels:
# NF-κB in 3T3 cells = assay: TNF-alpha induced NF-κB activation in 3T3 fibroblasts on chip; type: cell-based, mouse
# Text: The inventors took advantage of the long-term stable culture capability of the device and extended TNF-alpha induced NF-κB activation study in 3T3 fibroblasts for up to a week. The response of 3T3 cells to TNF-alpha stimulation is characterized by the nuclear translocation of transcription factor NF-κB, and visualized through automated fluorescence imaging (Kellogg, et al., 2015). Both single cells and a population of cells were successfully maintained in the present culture chambers, and were stimulated with series of TNF-alpha concentrations (0.001 to 100 ng/ml), which were simultaneously generated on-chip. […]
# (§1) For image acquisition, a Nikon Ti-ECLIPSE microscope with an automated translation stage and a digital CMOS camera (ORCA-Flash 4.0, Hamamatsu, Japan) was used. […] Bright field and fluorescence images were acquired and analyzed using a customized MATLAB program (Mathworks, […]). The algorithm extracts single cell traces including position, nuclear and cytoplasm fluorescence level. For example, the 3T3 cell nuclear area in each image is identified via the fluorescent nuclear marker GFP, and then the mean value of the nuclear intensity of the p65-DsRed marker is measured, and plotted as a function of time.
# [1] = test system: Hes5-GFP expression in NSCs; assay: NSCs Hes5-GFP expression under sequential ligand inputs (permutation test and decision tree analysis); type: cell-based, mouse; settings: for Hes5 expression relative to control: sequential input
# Text: (§2) Murine hematopoietic stem cells (HSC) are isolated by FACSAria III flow cytometer (BD Biosciences) as Lin−/c-Kit+/Sca-1+/CD48−/CD150+/CD34− (lineage, Lin: CD3e/CD11b/CD19/CD41/B220/Gr-1/Ter-119), which are approximately 50% pure HSCs. Macrophage colony-stimulating factor (M-CSF), a myeloid cytokine released during infection and inflammation, is employed to induce HSCs differentiation. Human CD34+ cells were isolated from mononuclear cells using EasySepTM human CD34 positive selection kit (Stemcell Technologies, Vancouver, BC, Canada). CD34+CD38−CD45RA−CD90+CD49f+ HSCs were sorted using a FACSAria III flow cytometer (BD Biosciences). Pro- and anti-inflammatory cytokines including TNF, IFN[…], IL-6, IP10 and MCP-1 are introduced into the cellular environment as single ligand and in combination. Embryonic NSCs with Hes-GFP and Dcx-RFP reporters were isolated at embryonic day 13.5 from a transgenic mice carrying Hes-GFP and Dcx-RFP using standard protocol (Woo, et al., 2009; Basak, et al., 2007). The resulting primary cells were verified to carry both Hes5-GFP and Dcx-RFP after isolation and allowed to grow for few passages before use in the experiments (Giachino, et al., 2009). NSCs were cultured as neurospheres in culture media (DMEM/F12+Glutamax (Gibco No:31331-028); 10 U/ml penicillin; 10 ug/ml Streptomycin; B27 supplement (1:50); FGF growth factor 0.02 ug/ml). As NSCs are sensitive to environmental variations, cell handling protocol before loading into the chip is examined systematically (including dissociation, FACS sorting, etc.). To obtain the optimal results, NSCs spheres are collected and loaded into the chip 24 hours after fresh dissociation wherein each sphere contains ˜7 to 10 cells. […]
# as §1
# (§3) To investigate the role of combinatorial or temporal ordering of signals in NSC differentiation, the inventors cultured NSCs under combinatorial and sequential applications of the six regulatory ligands (FIG. 8A, FIGS. 22 and 23). […] The inventors measured the ratio of the ligand-treated cells to untreated control for cell number and Hes5-GFP expression intensity. […] Multiple experiments were repeated resulting in nearly 3000 dynamic cultures analyzed. […]
# NSCs [2] = assay: NSCs cell fate (self-renewal or differentiation) from Hes5 level and cell numbers under sequential stimulation; type: cell-based, mouse; settings: for cell fate outcome: sequential input
# Text: (§4) Murine hematopoietic stem cells (HSC) are isolated by FACSAria III flow cytometer (BD Biosciences) as Lin−/c-Kit+/Sca-1+/CD48−/CD150+/CD34− (lineage, Lin: CD3e/CD11b/CD19/CD41/B220/Gr-1/Ter-119), which are approximately 50% pure HSCs. Macrophage colony-stimulating factor (M-CSF), a myeloid cytokine released during infection and inflammation, is employed to induce HSCs differentiation. Human CD34+ cells were isolated from mononuclear cells using EasySepTM human CD34 positive selection kit (Stemcell Technologies, Vancouver, BC, Canada). CD34+CD38−CD45RA−CD90+CD49f+ HSCs were sorted using a FACSAria III flow cytometer (BD Biosciences). Pro- and anti-inflammatory cytokines including TNF, IFN[…], IL-6, IP10 and MCP-1 are introduced into the cellular environment as single ligand and in combination. Embryonic NSCs with Hes-GFP and Dcx-RFP reporters were isolated at embryonic day 13.5 from a transgenic mice carrying Hes-GFP and Dcx-RFP using standard protocol (Woo, et al., 2009; Basak, et al., 2007). The resulting primary cells were verified to carry both Hes5-GFP and Dcx-RFP after isolation and allowed to grow for few passages before use in the experiments (Giachino, et al., 2009). NSCs were cultured as neurospheres in culture media (DMEM/F12+Glutamax (Gibco No:31331-028); 10 U/ml penicillin; 10 ug/ml Streptomycin; B27 supplement (1:50); FGF growth factor 0.02 ug/ml). As NSCs are sensitive to environmental variations, cell handling protocol before loading into the chip is examined systematically (including dissociation, FACS sorting, etc.). To obtain the optimal results, NSCs spheres are collected and loaded into the chip 24 hours after fresh dissociation wherein each sphere contains ˜7 to 10 cells. To avoid potential artifacts due to prolonged in vitro culture, only NSCs within 10 passages were used in the study.
# To investigate the role of combinatorial or temporal ordering of signals in NSC differentiation, the inventors cultured NSCs under combinatorial and sequential applications of the six regulatory ligands (FIG. 8A, FIGS. 22 and 23). For each independent NSC culture on the chip, the inventors introduced either one ligand each day (sequential inputs), or a combination of the selected ligands over a six-day period (combinatorial inputs). The inventors measured the ratio of the ligand-treated cells to untreated control for cell number and Hes5-GFP expression intensity. Each chip experiment consisted of 63 combinatorial and 720 sequential stimulation experiments, with duplicates (FIG. 8B). Multiple experiments were repeated resulting in nearly 3000 dynamic cultures analyzed. The inventors subjected all experimental outputs of NSC cell numbers and Hes5 expression to regression and classification tree analyses. […]
# NSCs [3] = assay: NSCs proliferation (cell number) under combinatorial ligand inputs (permutation test and decision tree analysis); type: cell-based, mouse; settings: ligands in isolation or as a pair (synergy)
# Text: (§5) Murine hematopoietic stem cells (HSC) are isolated by FACSAria III flow cytometer (BD Biosciences) as Lin−/c-Kit+/Sca-1+/CD48−/CD150+/CD34− (lineage, Lin: CD3e/CD11b/CD19/CD41/B220/Gr-1/Ter-119), which are approximately 50% pure HSCs. Macrophage colony-stimulating factor (M-CSF), a myeloid cytokine released during infection and inflammation, is employed to induce HSCs differentiation. Human CD34+ cells were isolated from mononuclear cells using EasySepTM human CD34 positive selection kit (Stemcell Technologies, Vancouver, BC, Canada). CD34+CD38−CD45RA−CD90+CD49f+ HSCs were sorted using a FACSAria III flow cytometer (BD Biosciences). […]
# as §1, with “time. […]” for “time.”
# NSCs [4] = assay: NSCs proliferation (cell number) under sequential ligand inputs (permutation test and decision tree analysis); type: cell-based, mouse; settings: sequential input
# Text: as §2, §1, §3
# human HSCs = type: cell-based; settings: TNF with other participating cytokines
# Method: FIG. 3C depicts a chart of long-term culture and TNF stimulation of human hematopoietic stem cells (HSCs). Cells were cultured on the microfluidic device in the absence of TNF (control) and 1 ng/ml TNF, for up to 5 days. […] N indicates cell numbers per chamber. […] D represents dynamic cytokine inputs, daily variation between 0.1 and 10 ng/ml.
# Besides being a signaling protein involved in systemic inflammation, TNF-alpha is also widely employed to mimic the post-transplantation signaling environment (Mohabbat, et al., 2012). To mimic clinical hematopoietic stem cell transplantation (HSCT), different doses of TNF-alpha are directed to designated culture chambers housing HSCs by programmed medium exchange procedures. […] In both cases, cells proliferate at a similar, if not higher, rate than those in bulk experiments in traditional culture dishes.
# as §5, with “Canada).” for “Canada). CD34+CD38−CD45RA−CD90+CD49f+ HSCs were sorted using a FACSAria III flow cytometer (BD Biosciences).”
# [5] = test system: Hes5-GFP expression in NSCs; assay: NSCs Hes5 level with sole presence of one ligand, on-chip culture; type: cell-based, mouse
# Method: FIG. 6B depicts a histogram of Hes5-GFP expression in NSCs before (red) and after (black) one week culture with 100 ng/ml PDGF. High levels of Hes5 in NSCs indicate maintenance of stem cell state, while reduced Hes5 indicates progress towards differentiation.
# Murine hematopoietic stem cells (HSC) are isolated by FACSAria III flow cytometer (BD Biosciences) as Lin−/c-Kit+/Sca-1+/CD48−/CD150+/CD34− (lineage, Lin: CD3e/CD11b/CD19/CD41/B220/Gr-1/Ter-119), which are approximately 50% pure HSCs. Macrophage colony-stimulating factor (M-CSF), a myeloid cytokine released during infection and inflammation, is employed to induce HSCs differentiation. […]
# as §1
# [6] = test system: Hes5-GFP expression in NSCs; assay: NSCs Hes5 expression under combinatorial ligand inputs (permutation test and decision tree analysis); type: cell-based, mouse; settings: combinatorial input; for Hes5 expression, mean ratio relative to control: decision tree
# Text: as §4
# For image acquisition, a Nikon Ti-ECLIPSE microscope with an automated translation stage and a digital CMOS camera (ORCA-Flash 4.0, Hamamatsu, Japan) was used. The stage and image acquisition was controlled via the NIS Elements software. Bright field and fluorescence images were acquired and analyzed using a customized MATLAB program (Mathworks, […]). The algorithm extracts single cell traces including position, nuclear and cytoplasm fluorescence level. For example, the 3T3 cell nuclear area in each image is identified via the fluorescent nuclear marker GFP, and then the mean value of the nuclear intensity of the p65-DsRed marker is measured, and plotted as a function of time.
# To investigate the role of combinatorial or temporal ordering of signals in NSC differentiation, the inventors cultured NSCs under combinatorial and sequential applications of the six regulatory ligands (FIG. 8A, FIGS. 22 and 23). For each independent NSC culture on the chip, the inventors introduced either one ligand each day (sequential inputs), or a combination of the selected ligands over a six-day period (combinatorial inputs). The inventors measured the ratio of the ligand-treated cells to untreated control for cell number and Hes5-GFP expression intensity. Each chip experiment consisted of 63 combinatorial and 720 sequential stimulation experiments, with duplicates (FIG. 8B). Multiple experiments were repeated resulting in nearly 3000 dynamic cultures analyzed. The inventors subjected all experimental outputs of NSC cell numbers and Hes5 expression to regression and classification tree analyses. NSCs' cellular states were categorized into two groups: differentiation (with decreased Hes5 level and cell numbers) and self-renewal (with increased Hes5 level and cell numbers) (FIG. 8D).
# In this work, the inventors use decision tree analysis to generate descriptive and predictive models which map measurements about cell phenotypic features (i.e., cell count and Hes5-GFP expression) to experimental conditions (i.e., sequential and combinatorial application of six regulatory ligands) (Breiman, 1984). […]
substance,measurement,setting,value
TNF-alpha,single cell response to pulse stimulation (NF-κB),"NF-κB in 3T3 cells; 0.1 and 0.2 ng/ml, first pulse, single cell level",all cells respond to the first pulse stimulation
same,cytoplasm NF-κB level,NF-κB in 3T3 cells; prolonged incubation and stimulation for one week,proportional to TNF-alpha concentration
"EGF: signaling ligand whose receptor is highly expressed during mouse forebrain development (NSYPGCPSSYDGYCLNGGVCMHIESLDSYTCNCVIGYSGDRCQTRDLRWWELR; not fully specified; Epidermal growth factor; UniProt P01132 977-1029, looked up)",Hes5 expression relative to control,[1]; ligand added at day 1,86.8 % of the control
same,Hes5 expression,"NSCs [2]; six-ligand sequence, ligand application moved to day 6",significant reduction in Hes5 expression
same,Hes5 expression and cell numbers,"NSCs [2]; six-ligand sequence, ligand delivered on day 2",high Hes5 expression levels and unchanged cell numbers
same,increased cell number,NSCs [3],60%
same,cell number raised by a factor,"NSCs [4]; CXCL added at day 1, ligand added at day 2",1.19 factor
same,cell number raised by a factor,"NSCs [4]; Jagged added at day 1, ligand added at day 2",1.38 factor
same,effect on cell number,NSCs [4]; ligand added at day 1 alone,does not introduce significant increase of cell number
IFNγ: cytokine combined with TNF on human HSCs,effect on TNF induced cell death,human HSCs,neutralize TNF induced cell death
PDGF,Hes5 expression outcome,"[1]; decision tree, ligand present on the 1st day of culture",high Hes5 expression levels
same,Hes5 expression relative to control,"[1]; DLL added at day 1, ligand applied at day 2",89.2 % of the control level
same,Hes5 expression relative to control,[1]; ligand added at day 1,126.6 % of the control
same,cell fate outcome,"NSCs [2]; DLL in day-1, ligand moved to day-2",promoting differentiation
same,cell fate outcome,NSCs [2]; ligand at day 1,NSCs self-renewal
same,increase of Hes5 level from its initial value,[5],around 25%
same,cell number relative to control,NSCs [4]; ligand added at day 1,85.4 % of the control
same,"Hes5 expression, mean ratio relative to control","[6]; PDGF present, without DLL",1.22
same,"Hes5 expression, mean ratio relative to control","[6]; PDGF present, without DLL, CXCL",1.37
same,"Hes5 expression, mean ratio relative to control","[6]; PDGF present, without DLL, CXCL or EGF",1.56
same,"Hes5 expression, mean ratio relative to control",[6]; ligand present,≥ 1.11
same,increase of Hes5 expression by a factor,[6]; permutation test,1.06 factor
same,Hes5 expression relative to control,"[6]; permutation test, combined with DLL",99.3 % of the control level
